From ChEMBL document CHEMBL5104195, “Discovery of Orally Bioavailable SOS1 Inhibitors for Suppressing KRAS-Driven Carcinoma” (J Med Chem, 2022) come the findings set out here.

SMILES strings stand for the structures.

Series [1] is described as follows: Elimination rate constant in ICR mouse at 50 mg/kg, po measured up to 24 hrs by LC-MS/MS analysis. The settings on record: in vivo.
Series [2] can be described thus: Half life in ICR mouse at 50 mg/kg, po measured up to 24 hrs by LC-MS/MS analysis. Conditions: in vivo.
A short description of series [3]: MRT in ICR mouse at 50 mg/kg, po measured up to 24 hrs by LC-MS/MS analysis. The settings on record: in vivo.
Series [4] can be described thus: Toxicity in BALB/c nude mouse xenografted with human MIA PaCa-21 cells expressing KRAS G12C mutant assessed as animal death at 50 mg/kg, po qd measured on day 21. Conditions: in vivo, 504 h. (In xenograft studies the graft and the host belong to different species.)
Series [5] is described as follows: Toxicity in BALB/c nude mouse xenografted with human MIA PaCa-21 cells expressing KRAS G12C mutant assessed as weight loss at 50 mg/kg, po qd measured on day 21. The settings on record: in vivo.
A short description of series [6]: Plasma protein binding in rat at 2 uM preincubated for 1 hr by balanced dialysis based LC-MS/MS analysis.
Series [7] can be described thus: Plasma protein binding in mouse at 2 uM preincubated for 1 hr by balanced dialysis based LC-MS/MS analysis.
Series [8] is described as follows: Plasma protein binding in dog at 2 uM preincubated for 1 hr by balanced dialysis based LC-MS/MS analysis.
The nature of series [9]: Plasma protein binding in monkey at 2 uM preincubated for 1 hr by balanced dialysis based LC-MS/MS analysis. The settings on record: rhesus monkey.
Series [10] in a line: in vivo. The settings on record: ICR, mouse, po, 50 mg/kg.
A short description of series [11]: in vivo. The settings on record: ICR, mouse, po, 50 mg/kg. This is another data set of the same source.
Series [12] in a line: in vivo. The settings on record: ICR, mouse, po, 50 mg/kg. This is another data set of the same source.
For series [13], the target named is SOS1-KRAS (Homo sapiens, UniProt Q07889). Briefly: Inhibition of N-terminal His6-tagged human recombinant SOS1(564 to 1049 residues)/human recombinant KRAS G12C mutant incubated for 60 mins by HTRF assay. Background: Time-resolved FRET reads energy transfer from a long-lived donor to a nearby acceptor.
For series [14], the target named is T1, Son of sevenless homolog 1 (Homo sapiens, UniProt Q07889).
T1 sequence (Q07889 whole entry): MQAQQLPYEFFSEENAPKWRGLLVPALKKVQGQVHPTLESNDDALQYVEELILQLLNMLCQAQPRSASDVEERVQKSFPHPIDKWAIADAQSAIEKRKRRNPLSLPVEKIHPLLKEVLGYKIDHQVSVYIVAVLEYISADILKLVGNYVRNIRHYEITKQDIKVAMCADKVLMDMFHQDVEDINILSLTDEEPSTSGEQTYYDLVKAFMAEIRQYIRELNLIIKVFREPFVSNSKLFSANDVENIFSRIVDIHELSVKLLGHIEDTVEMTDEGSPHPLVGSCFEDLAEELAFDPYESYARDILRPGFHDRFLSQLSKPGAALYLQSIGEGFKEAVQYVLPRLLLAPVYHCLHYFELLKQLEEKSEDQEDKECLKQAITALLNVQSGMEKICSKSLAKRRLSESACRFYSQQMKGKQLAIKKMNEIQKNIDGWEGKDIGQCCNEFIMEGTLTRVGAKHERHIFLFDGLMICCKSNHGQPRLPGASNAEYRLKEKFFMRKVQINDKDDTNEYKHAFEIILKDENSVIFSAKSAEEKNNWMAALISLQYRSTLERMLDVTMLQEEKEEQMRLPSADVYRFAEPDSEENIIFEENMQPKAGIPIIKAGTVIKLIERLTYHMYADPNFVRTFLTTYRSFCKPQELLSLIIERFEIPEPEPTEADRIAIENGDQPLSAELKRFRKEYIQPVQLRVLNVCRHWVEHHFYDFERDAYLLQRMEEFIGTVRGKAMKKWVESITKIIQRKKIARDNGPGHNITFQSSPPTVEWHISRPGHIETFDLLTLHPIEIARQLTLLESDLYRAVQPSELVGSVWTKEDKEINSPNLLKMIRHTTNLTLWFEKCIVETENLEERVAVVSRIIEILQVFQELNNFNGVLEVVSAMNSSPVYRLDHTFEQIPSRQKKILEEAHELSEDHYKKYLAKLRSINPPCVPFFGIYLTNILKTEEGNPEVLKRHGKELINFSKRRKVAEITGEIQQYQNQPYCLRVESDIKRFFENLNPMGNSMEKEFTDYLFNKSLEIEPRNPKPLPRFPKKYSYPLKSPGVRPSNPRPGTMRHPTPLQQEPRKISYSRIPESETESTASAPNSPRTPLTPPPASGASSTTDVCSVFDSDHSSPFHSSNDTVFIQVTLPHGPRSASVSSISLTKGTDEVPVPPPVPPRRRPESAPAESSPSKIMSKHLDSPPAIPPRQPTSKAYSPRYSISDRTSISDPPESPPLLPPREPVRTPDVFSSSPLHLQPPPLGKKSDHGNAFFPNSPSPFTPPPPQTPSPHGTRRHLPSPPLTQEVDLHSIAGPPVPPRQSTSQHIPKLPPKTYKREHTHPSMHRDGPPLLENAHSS
Briefly: Inhibition of SOS1 in human DLD-1 cells assessed as reduction in ERK phosphorylation incubated for 1 hr by fluorescence assay. The format is cell-based.

One may read the half-life as the time needed for the level to fall by half in the phase considered. Broadly, the MRT is the average time that molecules of a dose stay in the body. What is called fraction unbound is the share of the substance not bound to proteins or other matrix. What is called Tmax is the time from dosing to the highest level. As usually defined, the Cmax is the maximum level reached in the sampled fluid or tissue. What is called AUC is concentration integrated over time. Take `Cc1nc(N[C@H](C)c2cccc(C(F)F)c2F)c2cc3c(cc2n1)OCC[C@H]1CN(C(=O)[C@@H]2CCOC2)CCN31`: the k el at 24 h in series [1] was 8.39e-05 s⁻¹. In series [2], this molecule had a half-life at 24 h of 2.29 h. The MRT at 24 h in [3] turned out to be 2.89 h. In addition, the Activity entry in [4] and in series [5] was “Non-Toxic” throughout. The fraction unbound at 1 h, 2 µM in [6] was 0.001; in [7], 0.006; in series [8], 0.001; in series [9] it was 0.001. Besides, in [10], the time of peak concentration (Tmax) at 24 h amounted to 0.417 h. The molecule further had a maximum concentration (Cmax) at 24 h in series [11] of 1450 ng/mL. The same molecule showed an AUC at 24 h in series [12] of 7490 ng·h/mL.
In turn, `COCCN1CCN2c3cc4c(N[C@H](C)c5cccc(C(F)F)c5F)nc(C)nc4cc3OCC[C@H]2C1` showed a k el at 24 h in [1] of 2.64e-05 s⁻¹. The same molecule showed a half-life at 24 h in [2] of 7.23 h. The molecule also gave an MRT at 24 h in series [3] of 8.31 h. For the same molecule, the Tmax at 24 h in series [10] turned out to be 5.67 h. The molecule further had a Cmax at 24 h in series [11] of 433 ng/mL. Besides, the AUC at 24 h in series [12] amounted to 5420 ng·h/mL.
As usually defined, the IC50 is the point on the concentration scale where inhibition reaches its midpoint. Consider `Cc1nc(N[C@H](C)c2cccc(C(F)F)c2F)c2cc3c(cc2n1)OC[C@H]1CN(C(=O)C2(C#N)CC2)CCN31`, for which the IC50 is 8.4 nM in series [13] and 13 nM in [14].
`Cc1nc(N[C@H](C)c2cccc(C(F)F)c2F)c2cc3c(cc2n1)OCC[C@H]1CN(c2ccnn2C)CCN31`: in [1], the k el at 24 h was 7.36e-05 s⁻¹. Moreover, the half-life at 24 h in series [2] is 2.61 h. The molecule also returned an MRT at 24 h in series [3] of 4.47 h. In addition, the Activity entry in series [4] and in [5] was “Non-Toxic” throughout. For the same molecule, the fraction unbound at 1 h, 2 µM in series [6] was 0.107; in series [7], 0.079; in series [8], 0.01; in [9], 0.015. The Tmax at 24 h in [10] worked out at 0.33 h. The molecule further came in with a Cmax at 24 h in series [11] of 4690 ng/mL. The same molecule showed an AUC at 24 h in series [12] of 48800 ng·h/mL.
The molecule `Cc1nc(N[C@H](C)c2cccc(C(F)F)c2F)c2cc3c(cc2n1)OCC[C@H]1CN(C(=O)c2cccnc2)CCN31` had a k el at 24 h in series [1] of 0.000135 s⁻¹. Also, the half-life at 24 h in series [2] was 1.47 h. The molecule also had an MRT at 24 h in series [3] of 1.78 h. The time of peak concentration (Tmax) at 24 h in [10] stood at 0.333 h. Moreover, the Cmax at 24 h in [11] was found to be 1580 ng/mL. Further, in [12], the AUC at 24 h worked out at 3180 ng·h/mL.
In the case of `Cc1nc(N[C@H](C)c2cccc(C(F)F)c2F)c2cc3c(cc2n1)OCC[C@H]1CN(CC2COC2)CCN31`, in series [1], the k el at 24 h is 2.61e-05 s⁻¹. The half-life at 24 h in series [2] is 7.39 h. For the same molecule, the MRT at 24 h in series [3] stood at 7.64 h. Moreover, the Tmax at 24 h in [10] was 3 h. Further, the peak concentration (Cmax) at 24 h in series [11] turned out to be 645 ng/mL. In [12], this molecule had an AUC at 24 h of 10700 ng·h/mL.
Regarding `Cc1nc(N[C@H](C)c2cccc(C(F)F)c2F)c2cc3c(cc2n1)OCC[C@H]1CN(C)CCN31`, the k el at 24 h in series [1] was 9.78e-06 s⁻¹. The half-life at 24 h in series [2] was 20 h. In series [3], this molecule showed an MRT at 24 h of 9.58 h. In addition, in series [10], the Tmax at 24 h is 3.5 h. Besides, the Cmax at 24 h in series [11] was found to be 191 ng/mL. In addition, the AUC at 24 h in [12] worked out at 3250 ng·h/mL.
`Cc1nc(N[C@H](C)c2cccc(C(F)F)c2F)c2cc3c(cc2n1)OCC[C@H]1CN(C(=O)C2COC2)CCN31` showed a k el at 24 h in series [1] of 0.000142 s⁻¹. This molecule also had a half-life at 24 h in series [2] of 1.36 h. This molecule also displayed an MRT at 24 h in series [3] of 1.7 h. The Tmax at 24 h in series [10] was 0.38 h. The peak level in series [11] (Cmax at 24 h) was 885 ng/mL. In series [12], this molecule showed an AUC at 24 h of 1610 ng·h/mL.
`Cc1nc(N[C@H](C)c2cccc(C(F)F)c2F)c2cc3c(cc2n1)OCC[C@H]1CN(CC#N)CCN31`: the IC50 in series [14] stood at 70 nM.
